Biological target: T1, HDAC6 enzyme (Homo sapiens, UniProt Q9UBN7)
T1 construct: transducing full length HDAC6 gene into Sf-9 insect cells; GST; purchased SignalChem; host or cells: Sf-9 insect cells
T1 sequence (Q9UBN7 1-1215): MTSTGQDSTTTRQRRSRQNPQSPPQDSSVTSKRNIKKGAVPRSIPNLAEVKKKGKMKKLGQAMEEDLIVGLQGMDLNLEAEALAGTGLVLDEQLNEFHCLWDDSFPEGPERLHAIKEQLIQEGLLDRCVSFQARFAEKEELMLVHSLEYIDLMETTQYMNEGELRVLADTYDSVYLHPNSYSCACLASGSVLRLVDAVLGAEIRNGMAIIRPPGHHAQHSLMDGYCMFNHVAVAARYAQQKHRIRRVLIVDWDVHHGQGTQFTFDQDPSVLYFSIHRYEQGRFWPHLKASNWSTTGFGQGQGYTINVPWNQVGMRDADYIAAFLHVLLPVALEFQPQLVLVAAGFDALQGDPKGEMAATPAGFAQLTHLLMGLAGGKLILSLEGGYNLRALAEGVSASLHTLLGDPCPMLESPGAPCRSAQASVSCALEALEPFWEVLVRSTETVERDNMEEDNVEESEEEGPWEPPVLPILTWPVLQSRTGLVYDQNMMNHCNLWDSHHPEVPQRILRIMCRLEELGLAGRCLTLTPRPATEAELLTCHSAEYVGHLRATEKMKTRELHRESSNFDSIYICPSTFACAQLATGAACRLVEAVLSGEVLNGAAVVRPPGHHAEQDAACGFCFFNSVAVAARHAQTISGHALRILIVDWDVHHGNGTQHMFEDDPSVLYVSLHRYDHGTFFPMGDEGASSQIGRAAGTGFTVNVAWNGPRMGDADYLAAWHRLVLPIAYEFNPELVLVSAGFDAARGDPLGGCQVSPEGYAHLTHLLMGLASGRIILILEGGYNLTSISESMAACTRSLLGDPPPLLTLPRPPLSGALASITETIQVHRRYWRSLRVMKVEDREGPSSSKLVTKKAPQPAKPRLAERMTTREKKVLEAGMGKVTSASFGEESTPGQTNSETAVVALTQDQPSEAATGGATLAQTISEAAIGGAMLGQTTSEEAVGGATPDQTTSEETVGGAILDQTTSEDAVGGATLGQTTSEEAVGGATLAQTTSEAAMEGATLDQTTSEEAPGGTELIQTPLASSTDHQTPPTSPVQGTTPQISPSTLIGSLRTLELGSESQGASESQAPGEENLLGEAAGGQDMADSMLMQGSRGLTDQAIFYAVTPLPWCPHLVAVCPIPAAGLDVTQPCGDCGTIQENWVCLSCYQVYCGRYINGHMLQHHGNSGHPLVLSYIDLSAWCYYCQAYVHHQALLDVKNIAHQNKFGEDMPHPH
Test: HDAC6 enzyme inhibitory activity (HDAC-Glo I/II Assay kit)
Assay type: biochemical
Conditions: 10 μM; wells without enzyme = 100% inhibition
How it was run: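 Luminescence read-out after 20 min reaction with HDAC-Glo substrate-developer, following 60 min room-temperature preincubation of compound with Sf-9-expressed, GST-purified full-length enzyme. Inhibition is relative to no-enzyme wells set as 100%.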

Row | HDAC6 inhibitory rate (%) (10 μM) | SMILES
1 | 100 | O=C1c2cc(-c3nnc(C(F)F)o3)ccc2CN1N1CCC(F)(F)CC1c1ccc(F)cc1 (stereo not drawn) [Example 572, 2-(4,4-difluoro-2-(4-fluorophenyl)piperidin-1-yl)-6-(5-(difluoromethyl)-1,3,4-oxadiazol-2-yl)isoindolin-1-one (optical isomer)]
2 | 99 | O=C1c2cc(-c3nnc(C(F)F)o3)ccc2CN1N1CCC(F)(F)CC1c1ccc(F)cc1 (stereo not drawn) [Example 573, 2-(4,4-difluoro-2-(4-fluorophenyl)piperidin-1-yl)-6-(5-(difluoromethyl)-1,3,4-oxadiazol-2-yl)isoindolin-1-one (optical isomer)]
3 | 100 | O=C(NCC(F)(F)F)C1CC(F)(F)CCN1N1Cc2ccc(-c3nnc(C(F)F)o3)cc2C1=O (stereo not drawn) [Example 579, 1-(6-(5-(difluoromethyl)-1,3,4-oxadiazol-2-yl)-1-oxo-1,3-dihydro-2H-isoindol-2-yl)-4,4-difluoro-N-(2,2,2-trifluoroethyl)piperidine-2-carboxamide (Optical Isomer)]
4 | 100 | O=C(NCC(F)(F)F)C1CC(F)(F)CCN1N1Cc2ccc(-c3nnc(C(F)F)o3)cc2C1=O (stereo not drawn) [Example 580, 1-(6-(5-(difluoromethyl)-1,3,4-oxadiazol-2-yl)-1-oxo-1,3-dihydro-2H-isoindol-2-yl)-4,4-difluoro-N-(2,2,2-trifluoroethyl)piperidine-2-carboxamide (Optical Isomer)]
5 | 100 | O=C1c2cc(-c3nnc(C(F)F)o3)ccc2CN1N1CCCC1c1ccccn1 (stereo not drawn) [Example 596, 6-(5-(difluoromethyl)-1,3,4-oxadiazol-2-yl)-2-(2-(pyridin-2-yl)pyrrolidin-1-yl)isoindolin-1-one (optical isomer)]
6 | 99 | O=C1c2cc(-c3nnc(C(F)F)o3)ccc2CN1N1CCCC1c1ccccn1 (stereo not drawn) [Example 597, 6-(5-(difluoromethyl)-1,3,4-oxadiazol-2-yl)-2-(2-(pyridin-2-yl)pyrrolidin-1-yl)isoindolin-1-one (optical isomer)]

Same assay, conditions: 10 μM; wells without enzyme = 100% inhibition; read-out: HDAC6 inhibitory rate (%) (10 μM)

Row | SMILES | inhibition at 10 µM [%]
7 | O=C1c2cc(-c3nnc(C(F)F)o3)ccc2CN1N1CCCC1c1ccccn1 (stereo not drawn) [Example 570, 6-(5-(difluoromethyl)-1,3,4-oxadiazol-2-yl)-2-(2-(pyridin-2-yl)pyrrolidin-1-yl)isoindolin-1-one] | 100
8 | O=C1c2cc(-c3nnc(C(F)F)o3)ccc2CN1c1cccn2cc(C(F)(F)F)nc12 [Example 571, 6-(5-(difluoromethyl)-1,3,4-oxadiazol-2-yl)-2-(2-(trifluoromethyl)imidazo[1,2-a]pyridin-8-yl)isoindolin-1-one] | 73
9 | O=C1c2cc(-c3nnc(C(F)F)o3)ccc2CN1[C@@H]1CCCC(F)(F)[C@H]1NC(=O)C(F)(F)C(F)F [Example 581, N-((1S,6R)-6-(6-(5-(difluoromethyl)-1,3,4-oxadiazol-2-yl)-1-oxo-1,3-dihydro-2H-isoindol-2-yl)-2,2-difluorocyclohexyl)-2,2,3,3-tetrafluoropropanamide] | 99
10 | CC(C)(CF)OC(=O)N[C@H]1[C@H](N2Cc3ccc(-c4nnc(C(F)F)o4)cc3C2=O)CCCC1(F)F [Example 582, 1-fluoro-2-methylpropan-2-yl ((1S,6R)-6-(6-(5-(difluoromethyl)-1,3,4-oxadiazol-2-yl)-1-oxo-1,3-dihydro-2H-isoindol-2-yl)-2,2-difluorocyclohexyl)carbamate] | 100
11 | CC(C)(OC(=O)N[C@H]1[C@H](N2Cc3ccc(-c4nnc(C(F)F)o4)cc3C2=O)CCCC1(F)F)C(F)F [Example 583, 1,1-difluoro-2-methylpropan-2-yl ((1S,6R)-6-(6-(5-(difluoromethyl)-1,3,4-oxadiazol-2-yl)-1-oxo-1,3-dihydro-2H-isoindol-2-yl)-2,2-difluorocyclohexyl)carbamate] | 99
12 | Cn1cc(C(=O)c2ccccc2)c(N2Cc3ccc(-c4nnc(C(F)F)o4)cc3C2=O)n1 [Example 592, 2-(4-benzoyl-1-methyl-1H-pyrazol-3-yl)-6-(5-(difluoromethyl)-1,3,4-oxadiazol-2-yl)isoindolin-1-one] | 99
13 | O=C1c2cc(-c3nnc(C(F)F)o3)cnc2CN1[C@@H]1CCCC[C@H]1Oc1ccccn1 [Example 593, 3-(5-(difluoromethyl)-1,3,4-oxadiazol-2-yl)-6-((1R,2R)-2-(pyridin-2-yloxy)cyclohexyl)-6,7-dihydro-5H-pyrrolo[3,4-b]pyridin-5-one] | 100
14 | O=C1c2cc(-c3nnc(C(F)F)o3)ccc2CN1N1CCCCC1c1ccc(F)cc1 (stereo not drawn) [Example 594, 6-(5-(difluoromethyl)-1,3,4-oxadiazol-2-yl)-2-(2-(4-fluorophenyl)piperidin-1-yl)isoindolin-1-one] | 101
15 | O=C1c2cc(-c3nnc(C(F)F)o3)ccc2CN1N1CCC(F)(F)CC1c1ccc(F)cn1 (stereo not drawn) [Example 595, 2-(4,4-difluoro-2-(5-fluoropyridin-2-yl)piperidin-1-yl)-6-(5-(difluoromethyl)-1,3,4-oxadiazol-2-yl)isoindolin-1-one] | 100

Other lines, results leading:

Row | inhibition at 10 µM [%] | SMILES
16 | 99 | O=C1c2cc(-c3nnc(C(F)F)o3)cnc2CN1[C@@H]1CCCC(F)(F)[C@H]1NC(=O)C(F)(F)C(F)(F)F [Example 599, N-((1S,6R)-6-(3-(5-(difluoromethyl)-1,3,4-oxadiazol-2-yl)-5-oxo-5,7-dihydro-6H-pyrrolo[3,4-b]pyridin-6-yl)-2,2-difluorocyclohexyl)-2,2,3,3,3-pentafluoropropanamide]
17 | 100 | Cc1ccc(C2CC(F)(F)CCN2N2Cc3ccc(-c4nnc(C(F)F)o4)cc3C2=O)nc1 (stereo not drawn) [Example 600, 6-(5-(difluoromethyl)-1,3,4-oxadiazol-2-yl)-2-(4,4-difluoro-2-(5-methylpyridin-2-yl)piperidin-1-yl)isoindolin-1-one]
18 | 99 | O=C1c2cc(-c3nnc(C(F)F)o3)cnc2CN1[C@@H]1CCCC(F)(F)[C@H]1NC(=O)C(F)(F)C(F)F [Example 601, N-((1S,6R)-6-(3-(5-(difluoromethyl)-1,3,4-oxadiazol-2-yl)-5-oxo-5,7-dihydro-6H-pyrrolo[3,4-b]pyridin-6-yl)-2,2-difluorocyclohexyl)-2,2,3,3-tetrafluoropropanamide]
19 | 101 | O=C1c2cc(-c3nnc(C(F)F)o3)ccc2CN1N1CCCCC1c1cncc(F)c1 (stereo not drawn) [Example 602, 6-(5-(difluoromethyl)-1,3,4-oxadiazol-2-yl)-2-(2-(5-fluoropyridin-3-yl)piperidin-1-yl)isoindolin-1-one]
20 | 100 | O=C1c2cc(-c3nnc(C(F)F)o3)ccc2CN1N1CCCCC1c1cccc(F)c1 (stereo not drawn) [Example 603, 6-(5-(difluoromethyl)-1,3,4-oxadiazol-2-yl)-2-(2-(3-fluorophenyl)piperidin-1-yl)isoindolin-1-one]
21 | 98 | O=C(OCc1ccccc1)C1CC(F)(F)CCN1N1Cc2ccc(-c3nnc(C(F)F)o3)cc2C1=O (stereo not drawn) [Example 604, benzyl 1-(6-(5-(difluoromethyl)-1,3,4-oxadiazol-2-yl)-1-oxo-1,3-dihydro-2H-isoindol-2-yl)-4,4-difluoropiperidine-2-carboxylate]
22 | 99 | CC(C)(C(=O)N[C@H]1[C@H](N2Cc3ncc(-c4nnc(C(F)F)o4)cc3C2=O)CCCC1(F)F)C(F)(F)F [Example 605, N-((1S,6R)-6-(3-(5-(difluoromethyl)-1,3,4-oxadiazol-2-yl)-5-oxo-5,7-dihydro-6H-pyrrolo[3,4-b]pyridin-6-yl)-2,2-difluorocyclohexyl)-3,3,3-trifluoro-2,2-dimethylpropanamide]
23 | 99 | O=C1c2cc(-c3nnc(C(F)F)o3)cnc2CN1C1CCCC(F)(F)[C@H]1NC(=O)C1(C(F)(F)F)CC1 (stereo partly drawn) [Example 606]
24 | 99 | CC(C)(CF)OC(=O)N[C@H]1[C@H](N2Cc3ncc(-c4nnc(C(F)F)o4)cc3C2=O)CCCC1(F)F [Example 607, 1-fluoro-2-methylpropan-2-yl ((1S,6R)-6-(3-(5-(difluoromethyl)-1,3,4-oxadiazol-2-yl)-5-oxo-5,7-dihydro-6H-pyrrolo[3,4-b]pyridin-6-yl)2,2-difluorocyclohexyl)carbamate]
